≈ marks a conversion by molar mass, not a printed value. Marks after values point to notes of the source that are not given here.
Assays:
[1] = system: intracellular APEC O78, O2, and O1 in infected Caco-2, HD11, and THP1 cells; assay: Intracellular survival assay, statements over all serotypes and cells; format: cell-based, Escherichia coli; details: for minimal effective concentration: Escherichia coli, 6 h, O78, O2 and O1, Caco-2, HD11, THP-1, read-out: concentration clearing intracellular APEC
Experimental: (§1) Intracellular survival assay was conducted as described previously[28],[29] to determine the effect of cidal SMs on APEC survival in phagocytic (HD11, THP-1) and non-phagocytic (Caco-2) cells. Briefly, mid-logarithmic phase grown APEC O78, O1, and O2 were washed and adjusted to 1 × 10^7 CFU/mL in cell culture incomplete media (no FBS and antibiotics). One-hundred microlitres adjusted APEC suspension was added at multiplicity of infection (MOI) 10 to wells of 96-well cell culture plate containing cultured macrophage (HD11, THP-1) and epithelial cells (Caco-2) and incubated for 1 h and 3 h, respectively. […] The cells were then lysed with 100 µL of 0.1% Triton X-100 for 5 mins, serially diluted, and plated on LB agar plate to enumerate viable bacteria. The intracellular bacteria in SMs treated wells were compared with DMSO (1%) treated wells. Two independent experiments in duplicate wells for each concentration of SMs were conducted.

APEC O1-63 = assay: MIC and MBC determination in M63 media; format: cell-based; details: Escherichia coli; APEC O1-63, M63 media
APEC O15 = assay: MIC and MBC determination in M63 media; format: cell-based; details: Escherichia coli
APEC O1 = assay: MIC and MBC determination in M63 media; format: cell-based; details: Escherichia coli
APEC O78 = assay: Loss of 260/280 nm absorbing materials assay; format: cell-based, Escherichia coli; details: 2X MBC, 1 h; for Absorbance 280 nm of treated supernatant: DMSO 2.58; for Absorbance 280 nm of treated supernatant / Absorbance 260 nm of treated supernatant: superscript a P < 0.05 vs DMSO; for Absorbance 260 nm of treated supernatant: DMSO 3.77
Experimental: Membrane permeability assays (crystal violet (CV) uptake and loss of 260/280 nm absorbing materials) were conducted as described previously. […] CV uptake was measured using the formula: (OD DMSO − OD SM/OD DMSO × 100). Two independent experiments in duplicates were conducted.

APEC O78-53 = assay: MIC and MBC determination in M63 media; format: cell-based; details: Escherichia coli; APEC O78-53, M63 media
Experimental: One microlitre SM of each concentration was transferred to each well of a 96-well plate containing 100 µL of the 0.05 OD600 adjusted APEC O78 culture in M63 media. Growth was monitored in Sunrise - Absorbance microplate reader as described above. MIC was indicated by lowest concentration of SM with non-elevated OD600 measurement. MBC was determined by absence of APEC growth on LB agar plate following subculture. […] Two independent experiments were conducted.

APEC O109 = assay: MIC and MBC determination in M63 media; format: cell-based; details: Escherichia coli
APEC O2 = assay: MIC and MBC determination in M63 media; format: cell-based; details: Escherichia coli
APEC O115 = assay: MIC and MBC determination in M63 media; format: cell-based; details: Escherichia coli
[2] = system: biofilm embedded APEC O78; assay: MBEC High-throughput (HTP) assay; format: cell-based, Escherichia coli; details: for MBEC as multiple of MIC (superscript): 18 h challenge in M63 media
Experimental: The effect of cidal SMs against biofilm embedded APEC was determined using MBEC High-throughput (HTP) assay (Innovotech Inc., AB, Canada)[22]. Briefly, 150 μL of 0.05 OD600 adjusted APEC O78 culture was aliquoted into each well of the MBEC device containing polystyrene pegs and incubated at 37 °C for 36 h in LB media under stationary condition. […] The plate was incubated in the dark for 18 h at 37 °C with rotation at 110 rpm. The DMSO (1%) and […] media were used as positive and negative controls, respectively. Following incubation, MIC of SMs in challenged plate was recorded. The SMs exposed pegs were then transferred to a new 96-well plate containing PBS and sonicated for 30 mins (Aquasonic ultrasonic cleaner, VWR) to disrupt the biofilm. The sonicated suspensions were ten-fold serially diluted and plated on LB agar plate. Biofilm embedded APEC bacteria were enumerated and minimum biofilm eradication concentration (MBEC) of SMs were determined as described previously. Two independent experiments were conducted.

[3] = system: intracellular APEC O2 in Caco-2 cells; assay: Intracellular survival assay; format: cell-based, Escherichia coli; details: for minimal effective concentration: Escherichia coli, O2, Caco-2, 6 h treatment, read-out: SMs intracellular APEC clearance concentration; for intracellular APEC clearance concentration as multiple of MIC (superscript): O2, Caco-2; for concentration at which the SM significantly (P < 0.01) reduced intracellular APEC (superscript of t-statistic): O2, Caco-2, 6 h
Experimental: as §1

[4] = system: intracellular APEC O2 in HD11 cells; assay: Intracellular survival assay; format: cell-based, Escherichia coli; details: for minimal effective concentration: Escherichia coli, O2, HD11, 6 h treatment, read-out: SMs intracellular APEC clearance concentration; for intracellular APEC clearance concentration as multiple of MIC (superscript): O2, HD11; for concentration at which the SM significantly (P < 0.01) reduced intracellular APEC (superscript of t-statistic): O2, HD11, 6 h
Experimental: as §1

[5] = system: intracellular APEC O78 in THP-1 cells; assay: Intracellular survival assay; format: cell-based, Escherichia coli; details: for minimal effective concentration: Escherichia coli, O78, THP-1, 6 h treatment, read-out: SMs intracellular APEC clearance concentration; for intracellular APEC clearance concentration as multiple of MIC (superscript): O78, THP-1; for concentration at which the SM significantly (P < 0.01) reduced intracellular APEC (superscript of t-statistic): O78, THP-1, 6 h
Experimental: as §1

[6] = system: intracellular APEC O1 in THP-1 cells; assay: Intracellular survival assay; format: cell-based, Escherichia coli; details: for minimal effective concentration: Escherichia coli, O1, THP-1, 6 h treatment, read-out: SMs intracellular APEC clearance concentration; for concentration at which the SM significantly (P < 0.01) reduced intracellular APEC (superscript of t-statistic): O1, THP-1, 6 h
Experimental: as §1

[7] = system: intracellular APEC O1 in HD11 cells; assay: Intracellular survival assay; format: cell-based, Escherichia coli; details: for minimal effective concentration: Escherichia coli, O1, HD11, 6 h treatment, read-out: SMs intracellular APEC clearance concentration; for concentration at which the SM significantly (P < 0.01) reduced intracellular APEC (superscript of t-statistic): O1, HD11, 6 h
Experimental: as §1

[8] = system: intracellular APEC O2 in THP-1 cells; assay: Intracellular survival assay; format: cell-based, Escherichia coli; details: for minimal effective concentration: Escherichia coli, O2, THP-1, 6 h treatment, read-out: SMs intracellular APEC clearance concentration; for concentration at which the SM significantly (P < 0.01) reduced intracellular APEC (superscript of t-statistic): O2, THP-1, 6 h
Experimental: as §1

[9] = system: intracellular APEC O78 in HD11 cells; assay: Intracellular survival assay; format: cell-based, Escherichia coli; details: for minimal effective concentration: Escherichia coli, O78, HD11, 6 h treatment, read-out: SMs intracellular APEC clearance concentration; for intracellular APEC clearance concentration as multiple of MIC (superscript): O78, HD11; for concentration at which the SM significantly (P < 0.01) reduced intracellular APEC (superscript of t-statistic): O78, HD11, 6 h
Experimental: as §1

Structure (SMILES) | minimal effective concentration [1] [µM] | MBC (APEC O1-63) [µM] | MIC (APEC O1-63) [µM] | MBC (APEC O15) [µM] | MIC (APEC O15) [µM] | MBC (APEC O1) [µM] | MIC (APEC O1) [µM] | 260 nm absorbing materials in supernatant compared with DMSO (APEC O78) | 280 nm absorbing materials in supernatant compared with DMSO (APEC O78) | Absorbance 280 nm of treated supernatant (APEC O78) | Absorbance 260 nm of treated supernatant (APEC O78) | MBC (APEC O78-53) [µM] | MIC (APEC O78-53) [µM] | MBC (APEC O109) [µM] | MIC (APEC O109) [µM] | MBC (APEC O2) [µM] | MIC (APEC O2) [µM] | MBC (APEC O115) [µM] | MIC (APEC O115) [µM] | MBEC as multiple of MIC (superscript) [2] | also measured
COc1ccc(CCN(Cc2cc3c(cc2Cl)OCO3)CC2CCN(C)CC2)cc1 [SM11] | ≥ 100 | 200 (≈ 86.2 µg/mL) | 100 (≈ 43.1 µg/mL) | 100 (≈ 43.1 µg/mL) | 100 (≈ 43.1 µg/mL) | 100 (≈ 43.1 µg/mL) | 100 (≈ 43.1 µg/mL) | significantly (P < 0.05, Student’s t-test) increased | significantly (P < 0.05, Student’s t-test) increased | 2.89^a | 4.00^a | 200 (≈ 86.2 µg/mL) | 100 (≈ 43.1 µg/mL) | 200 (≈ 86.2 µg/mL) | 200 (≈ 86.2 µg/mL) | 200 (≈ 86.2 µg/mL) | 100 (≈ 43.1 µg/mL) | 200 (≈ 86.2 µg/mL) | 200 (≈ 86.2 µg/mL) | d (4X MIC) | MBEC as multiple of MIC ([2]; tested 0.5X to 8X MIC): 4 X MIC; minimal effective concentration [3]: 200 µM; intracellular APEC clearance concentration as multiple of MIC (superscript) [3]: b (2X MIC); concentration at which the SM significantly (P < 0.01) reduced intracellular APEC (superscript of t-statistic) [3]: b (1X MIC); minimal effective concentration [4]: 200 µM; intracellular APEC clearance concentration as multiple of MIC (superscript) [4]: b (2X MIC); concentration at which the SM significantly (P < 0.01) reduced intracellular APEC (superscript of t-statistic) [4]: a (0.5X MIC); minimal effective concentration [5]: 100 µM; intracellular APEC clearance concentration as multiple of MIC (superscript) [5]: a (1X MIC); concentration at which the SM significantly (P < 0.01) reduced intracellular APEC (superscript of t-statistic) [5]: a (0.5X MIC); minimal effective concentration [6]: > 200 µM; concentration at which the SM significantly (P < 0.01) reduced intracellular APEC (superscript of t-statistic) [6]: b (1X MIC); minimal effective concentration [7]: 200 µM; concentration at which the SM significantly (P < 0.01) reduced intracellular APEC (superscript of t-statistic) [7]: b (1X MIC); minimal effective concentration [8]: 100 µM; concentration at which the SM significantly (P < 0.01) reduced intracellular APEC (superscript of t-statistic) [8]: a (0.5X MIC); minimal effective concentration [9]: 100 µM; intracellular APEC clearance concentration as multiple of MIC (superscript) [9]: a (1X MIC); concentration at which the SM significantly (P < 0.01) reduced intracellular APEC (superscript of t-statistic) [9]: a (0.5X MIC)
CC1CCC(C(C)C)C(OC(=O)Cn2c[n+](CC(=O)OC3CC(C)CCC3C(C)C)c3ccccc32)C1 (stereo not drawn) [SM4] | ≤ 100 | 50 | 25 | 25 | 25 | 50 | 25 | significantly (P < 0.05, Student’s t-test) increased | significantly (P < 0.05, Student’s t-test) increased | 2.69^a | 3.91^a | 50 | 25 | 25 | 25 | 50 | 25 | 25 | 25 | a (0.5X MIC) | ranking in clearing intracellular APEC ([1]; all tested serotypes and cells): most effective SMs in clearing intracellular APEC serotypes in all tested cells; minimal effective concentration [3]: 100 µM; intracellular APEC clearance concentration as multiple of MIC (superscript) [3]: c (4X MIC); concentration at which the SM significantly (P < 0.01) reduced intracellular APEC (superscript of t-statistic) [3]: c (2XMIC); minimal effective concentration [4]: 50 µM; intracellular APEC clearance concentration as multiple of MIC (superscript) [4]: b (2X MIC); concentration at which the SM significantly (P < 0.01) reduced intracellular APEC (superscript of t-statistic) [4]: a (0.5X MIC); minimal effective concentration [5]: 50 µM; intracellular APEC clearance concentration as multiple of MIC (superscript) [5]: b (2X MIC); concentration at which the SM significantly (P < 0.01) reduced intracellular APEC (superscript of t-statistic) [5]: a (0.5X MIC); minimal effective concentration [6]: > 100 µM; concentration at which the SM significantly (P < 0.01) reduced intracellular APEC (superscript of t-statistic) [6]: b (1X MIC); minimal effective concentration [7]: 50 µM; concentration at which the SM significantly (P < 0.01) reduced intracellular APEC (superscript of t-statistic) [7]: b (1X MIC); minimal effective concentration [8]: 100 µM; concentration at which the SM significantly (P < 0.01) reduced intracellular APEC (superscript of t-statistic) [8]: b (1X MIC); minimal effective concentration [9]: 50 µM; intracellular APEC clearance concentration as multiple of MIC (superscript) [9]: b (2X MIC); concentration at which the SM significantly (P < 0.01) reduced intracellular APEC (superscript of t-statistic) [9]: a (0.5X MIC)
